Source: PubChem BioAssay (NCI)
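Results reflect a 48-hour exposure of cells in 96-well plates to compound at five concentrations. TGI: total growth inhibition.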

What was measured:
Experiment in all cases: NCI anticancer screen, dose series, 48 h
LOX IMVI melanoma = system: LOX IMVI melanoma
T-47D breast = system: T-47D breast
UACC-62 melanoma = system: UACC-62 melanoma
OVCAR-5 ovarian = system: OVCAR-5 ovarian
OVCAR-3 ovarian = system: OVCAR-3 ovarian
TK-10 renal = system: TK-10 renal
HL-60(TB) leukemia = system: HL-60(TB) leukemia
HOP-92 NSCLC = system: HOP-92 NSCLC
SK-MEL-5 melanoma = system: SK-MEL-5 melanoma
HCT-15 colon = system: HCT-15 colon
K-562 leukemia = system: K-562 leukemia
MCF7 breast = system: MCF7 breast
NCI/ADR-RES ovarian = system: NCI/ADR-RES ovarian
PC-3 prostate = system: PC-3 prostate
ACHN renal = system: ACHN renal
HCC-2998 colon = system: HCC-2998 colon
A498 renal = system: A498 renal
SR leukemia = system: SR leukemia
NCI-H226 lung = system: NCI-H226 lung
DU-145 prostate = system: DU-145 prostate
NCI-H522 lung = system: NCI-H522 lung
HCT-116 colon = system: HCT-116 colon
HT29 colon = system: HT29 colon
MDA-MB-435 = system: MDA-MB-435
UO-31 renal = system: UO-31 renal
SNB-75 CNS = system: SNB-75 CNS
SNB-19 CNS = system: SNB-19 CNS
SF-539 CNS = system: SF-539 CNS
IGROV1 ovarian = system: IGROV1 ovarian
SK-MEL-28 melanoma = system: SK-MEL-28 melanoma
NCI-H460 lung = system: NCI-H460 lung
MDA-N = system: MDA-N
HOP-62 NSCLC = system: HOP-62 NSCLC
SK-MEL-2 melanoma = system: SK-MEL-2 melanoma
M14 melanoma = system: M14 melanoma
MOLT-4 leukemia = system: MOLT-4 leukemia
KM12 colon = system: KM12 colon
SN12C renal = system: SN12C renal
OVCAR-4 ovarian = system: OVCAR-4 ovarian
SF-268 CNS = system: SF-268 CNS
A549 NSCLC = system: A549 NSCLC
SK-OV-3 ovarian = system: SK-OV-3 ovarian
RXF 393 renal = system: RXF 393 renal
MALME-3M melanoma = system: MALME-3M melanoma
EKVX NSCLC = system: EKVX NSCLC
OVCAR-8 ovarian = system: OVCAR-8 ovarian
RPMI-8226 leukemia = system: RPMI-8226 leukemia
MDA-MB-231 breast = system: MDA-MB-231 breast
CCRF-CEM leukemia = system: CCRF-CEM leukemia
SF-295 CNS = system: SF-295 CNS
U251 CNS = system: U251 CNS
UACC-257 melanoma = system: UACC-257 melanoma
NCI-H23 lung = system: NCI-H23 lung
CAKI-1 renal = system: CAKI-1 renal
HS 578T breast = system: HS 578T breast
COLO 205 colon = system: COLO 205 colon
BT-549 breast = system: BT-549 breast
786-0 renal = system: 786-0 renal
SW-620 colon = system: SW-620 colon

**Q.** How did the TGI (LOX IMVI melanoma) turn out when `COc1ccc2nc3ccc(OC)cc3c(S(=O)Cc3ccc([N+](=O)[O-])cc3)c2c1` (configuration not stated) was run?
**A.** 34.7 µM

**Q.** What about the TGI (T-47D breast) of the same compound?
**A.** 4.34 µM

**Q.** And the TGI (UACC-62 melanoma)?
**A.** 29.5 µM

**Q.** And the TGI (OVCAR-5 ovarian)?
**A.** 34.5 µM

**Q.** What about the TGI (OVCAR-3 ovarian) of the same compound?
**A.** 14.2 µM

**Q.** What about the TGI (TK-10 renal) of the same compound?
**A.** 10.4 µM

**Q.** What about the TGI (HL-60(TB) leukemia) of the same compound?
**A.** 6.97 µM

**Q.** And the TGI (HOP-92 NSCLC)?
**A.** > 23.5 µM

**Q.** And the TGI (SK-MEL-5 melanoma)?
**A.** 31.8 µM

**Q.** What about the TGI (HCT-15 colon) of the same compound?
**A.** 10.5 µM

**Q.** And the TGI (K-562 leukemia)?
**A.** > 100 µM

**Q.** What about the TGI (MCF7 breast) of the same compound?
**A.** 4.26 µM

**Q.** What about the TGI (NCI/ADR-RES ovarian) of the same compound?
**A.** 62.3 µM

**Q.** And the TGI (PC-3 prostate)?
**A.** 27.6 µM

**Q.** What about the TGI (ACHN renal) of the same compound?
**A.** 11.2 µM

**Q.** What about the TGI (HCC-2998 colon) of the same compound?
**A.** 34 µM

**Q.** What about the TGI (A498 renal) of the same compound?
**A.** 36.3 µM

**Q.** And the TGI (SR leukemia)?
**A.** > 33.6 µM

**Q.** And the TGI (NCI-H226 lung)?
**A.** 45.6 µM

**Q.** What about the TGI (DU-145 prostate) of the same compound?
**A.** 6.59 µM

**Q.** What about the TGI (NCI-H522 lung) of the same compound?
**A.** 3.37 µM

**Q.** And the TGI (HCT-116 colon)?
**A.** 3.12 µM

**Q.** And the TGI (HT29 colon)?
**A.** 6.33 µM

**Q.** And the TGI (MDA-MB-435)?
**A.** 26 µM

**Q.** What about the TGI (UO-31 renal) of the same compound?
**A.** 12.9 µM

**Q.** And the TGI (SNB-75 CNS)?
**A.** 35.9 µM

**Q.** And the TGI (SNB-19 CNS)?
**A.** 52.3 µM

**Q.** What about the TGI (SF-539 CNS) of the same compound?
**A.** 7.25 µM

**Q.** What about the TGI (IGROV1 ovarian) of the same compound?
**A.** 11.1 µM

**Q.** What about the TGI (SK-MEL-28 melanoma) of the same compound?
**A.** 15.7 µM

**Q.** And the TGI (NCI-H460 lung)?
**A.** 67.4 µM

**Q.** And the TGI (MDA-N)?
**A.** 29.7 µM

**Q.** What about the TGI (HOP-62 NSCLC) of the same compound?
**A.** 30.7 µM

**Q.** And the TGI (SK-MEL-2 melanoma)?
**A.** 34.9 µM

**Q.** What about the TGI (M14 melanoma) of the same compound?
**A.** 30.6 µM

**Q.** What about the TGI (MOLT-4 leukemia) of the same compound?
**A.** > 23.2 µM

**Q.** And the TGI (KM12 colon)?
**A.** 42 µM

**Q.** And the TGI (SN12C renal)?
**A.** 9.94 µM

**Q.** What about the TGI (OVCAR-4 ovarian) of the same compound?
**A.** 23.7 µM

**Q.** What about the TGI (SF-268 CNS) of the same compound?
**A.** 47.5 µM

**Q.** And the TGI (A549 NSCLC)?
**A.** > 58 µM

**Q.** What about the TGI (SK-OV-3 ovarian) of the same compound?
**A.** 40.1 µM

**Q.** And the TGI (RXF 393 renal)?
**A.** 28.6 µM

**Q.** And the TGI (MALME-3M melanoma)?
**A.** 5.18 µM

**Q.** What about the TGI (EKVX NSCLC) of the same compound?
**A.** 32.5 µM

**Q.** What about the TGI (OVCAR-8 ovarian) of the same compound?
**A.** 13.1 µM

**Q.** And the TGI (RPMI-8226 leukemia)?
**A.** 7.7 µM

**Q.** What about the TGI (MDA-MB-231 breast) of the same compound?
**A.** 29.9 µM

**Q.** And the TGI (CCRF-CEM leukemia)?
**A.** > 21.9 µM

**Q.** What about the TGI (SF-295 CNS) of the same compound?
**A.** 41.8 µM

**Q.** What about the TGI (U251 CNS) of the same compound?
**A.** > 55.2 µM

**Q.** What about the TGI (UACC-257 melanoma) of the same compound?
**A.** 11.4 µM

**Q.** What about the TGI (NCI-H23 lung) of the same compound?
**A.** 25.1 µM

**Q.** And the TGI (CAKI-1 renal)?
**A.** 28.6 µM

**Q.** What about the TGI (HS 578T breast) of the same compound?
**A.** 25.9 µM

**Q.** What about the TGI (COLO 205 colon) of the same compound?
**A.** 15.9 µM

**Q.** What about the TGI (BT-549 breast) of the same compound?
**A.** 33.4 µM

**Q.** And the TGI (786-0 renal)?
**A.** 4.26 µM

**Q.** `c1cc(-c2cscc2-c2ccsc2)cs1` was tested. Which TGI (LOX IMVI melanoma) did it give?
**A.** > 100 µM

**Q.** What about the TGI (T-47D breast) of the same compound?
**A.** > 100 µM

**Q.** And the TGI (UACC-62 melanoma)?
**A.** > 100 µM

**Q.** What about the TGI (OVCAR-5 ovarian) of the same compound?
**A.** > 100 µM

**Q.** What about the TGI (OVCAR-3 ovarian) of the same compound?
**A.** 89.8 µM

**Q.** What about the TGI (TK-10 renal) of the same compound?
**A.** > 100 µM

**Q.** And the TGI (HL-60(TB) leukemia)?
**A.** > 100 µM

**Q.** What about the TGI (HOP-92 NSCLC) of the same compound?
**A.** > 100 µM

**Q.** What about the TGI (SK-MEL-5 melanoma) of the same compound?
**A.** > 100 µM

**Q.** And the TGI (HCT-15 colon)?
**A.** > 100 µM

**Q.** What about the TGI (K-562 leukemia) of the same compound?
**A.** > 100 µM

**Q.** What about the TGI (MCF7 breast) of the same compound?
**A.** > 100 µM

**Q.** What about the TGI (NCI/ADR-RES ovarian) of the same compound?
**A.** > 100 µM

**Q.** And the TGI (PC-3 prostate)?
**A.** > 100 µM

**Q.** And the TGI (ACHN renal)?
**A.** > 100 µM

**Q.** And the TGI (HCC-2998 colon)?
**A.** 91.8 µM

**Q.** What about the TGI (A498 renal) of the same compound?
**A.** > 100 µM

**Q.** What about the TGI (SR leukemia) of the same compound?
**A.** > 100 µM

**Q.** What about the TGI (DU-145 prostate) of the same compound?
**A.** > 100 µM

**Q.** What about the TGI (HCT-116 colon) of the same compound?
**A.** > 100 µM

**Q.** And the TGI (HT29 colon)?
**A.** > 100 µM

**Q.** And the TGI (MDA-MB-435)?
**A.** > 100 µM

**Q.** What about the TGI (UO-31 renal) of the same compound?
**A.** > 100 µM

**Q.** What about the TGI (SNB-75 CNS) of the same compound?
**A.** > 100 µM

**Q.** And the TGI (SW-620 colon)?
**A.** > 100 µM

**Q.** And the TGI (SF-539 CNS)?
**A.** 59.5 µM

**Q.** What about the TGI (IGROV1 ovarian) of the same compound?
**A.** > 100 µM

**Q.** And the TGI (SK-MEL-28 melanoma)?
**A.** > 100 µM

**Q.** What about the TGI (NCI-H460 lung) of the same compound?
**A.** > 100 µM

**Q.** And the TGI (MDA-N)?
**A.** > 100 µM

**Q.** What about the TGI (HOP-62 NSCLC) of the same compound?
**A.** > 100 µM

**Q.** What about the TGI (SK-MEL-2 melanoma) of the same compound?
**A.** 28.4 µM

**Q.** What about the TGI (M14 melanoma) of the same compound?
**A.** > 100 µM

**Q.** And the TGI (MOLT-4 leukemia)?
**A.** > 100 µM

**Q.** What about the TGI (KM12 colon) of the same compound?
**A.** 38 µM

**Q.** And the TGI (SN12C renal)?
**A.** > 100 µM

**Q.** What about the TGI (OVCAR-4 ovarian) of the same compound?
**A.** > 100 µM

**Q.** What about the TGI (SF-268 CNS) of the same compound?
**A.** > 100 µM

**Q.** And the TGI (A549 NSCLC)?
**A.** > 100 µM

**Q.** What about the TGI (SK-OV-3 ovarian) of the same compound?
**A.** > 100 µM

**Q.** What about the TGI (RXF 393 renal) of the same compound?
**A.** > 100 µM

**Q.** What about the TGI (EKVX NSCLC) of the same compound?
**A.** > 100 µM

**Q.** And the TGI (RPMI-8226 leukemia)?
**A.** > 100 µM

**Q.** What about the TGI (MDA-MB-231 breast) of the same compound?
**A.** > 100 µM

**Q.** And the TGI (CCRF-CEM leukemia)?
**A.** > 100 µM

**Q.** What about the TGI (SF-295 CNS) of the same compound?
**A.** > 100 µM

**Q.** And the TGI (U251 CNS)?
**A.** > 100 µM

**Q.** What about the TGI (UACC-257 melanoma) of the same compound?
**A.** > 100 µM

**Q.** What about the TGI (NCI-H23 lung) of the same compound?
**A.** > 100 µM

**Q.** And the TGI (CAKI-1 renal)?
**A.** > 100 µM

**Q.** What about the TGI (HS 578T breast) of the same compound?
**A.** 64.2 µM

**Q.** What about the TGI (COLO 205 colon) of the same compound?
**A.** > 100 µM

**Q.** What about the TGI (BT-549 breast) of the same compound?
**A.** > 100 µM

**Q.** And the TGI (786-0 renal)?
**A.** > 100 µM
